Here are results for 15 molecules from PMC11202002, “P18: Novel Anticancer Peptide from Induced Tumor-Suppressing Cells Targeting Breast Cancer and Bone Metastasis” (Cancers, 2024).

Read-outs that look alike come from different tables or passages of the source.

As a reminder, the IC50 is the concentration at which inhibition is half-maximal.

The test system of one assay is MDA-MB-231 cells. Description: MTT-based cell viability assay. Also on record: species or system human. The following applies: for MTT-based relative viability: relative to cn = 1.00, peptide concentration not given, treated two days, OD 562 nm. As for the experimental part: (§1) Using 96-well plates with approximately 2000 cells per well, an MTT-based metabolic activity assay was performed. The cells were treated with agents and incubated for two days. On the fourth day, they were stained with 0.5 mg/mL thiazolyl blue tetrazolium bromide (M5655, Sigma). The optical density, used to assess metabolic activity, was measured at 562 nm. For the EdU-based proliferation activity assay, the cells were seeded in 96-well plates at about 1000 cells per well. A fluorescence-based cell proliferation kit (Click-iT™, EdU Alexa Fluor™ 488 Imaging Kit; Thermo Fisher, Waltham, MA, USA) was used according to the manufacturer’s instructions.

The test system of another assay is MDA-MB-436 cells. Description: MTT-based cell viability assay. Also on record: species or system human. The conditions noted are these: for MTT-based relative viability: relative to cn = 1.00, peptide concentration not given, treated two days, OD 562 nm. As for the experimental part:
as §1

For assay [1], the system named is human triple-negative breast cancer tissue. Description: Ex vivo cancer tissue assay. The format is cell-based. The following applies: 5 µM Cisplatin or Taxol with 25 µg/mL of P18; 48 and 96 h; n = 6. Here is the method: The usage of human triple-negative breast cancer tissue was approved by the Indiana University Institutional Review Board (1911155674), and the tissues were received from the Indiana University Simon Comprehensive Cancer Center Tissue Procurement Core. Freshly isolated breast cancer tissue (~10 mg) was manually fragmented with a scalpel into small pieces (0.5~0.8 mm in length), which were grown in DMEM with 10% FBS and antibiotics for a day. […] The culture medium, consisting of these agents, was applied for 4 days, and a change in the fragment size was determined.

The test system of assay [2] is 4T1.2 mammary tumor cells. As to the kind of experiment: MTT-based cell viability assay. The arrangement: species or system mouse. Here is the method: as §1
Another assay concerns PANC1 PDAC cells. As to the kind of experiment: MTT-based cell viability assay. Here is the method:
as §1

In assay [3] the test system is TT2 osteosarcoma cell line. As to the kind of experiment: MTT-based cell viability assay. The following applies: TT2 OS cells. Here is the method: as §1
Another assay has as its system PANC198 PDAC cells. As to the kind of experiment: MTT-based cell viability assay. The conditions noted are these: PANC198 (PAN198). Here is the method: as §1
The test system of a further assay is MCF7 cells. As to the kind of experiment: MTT-based cell viability assay. The arrangement: species or system human. Here is the method:
as §1

Turning to “IEVIEIMTDR [P22, ACP candidate … from Hnrnpa1]”, the MTT-based relative viability with MDA-MB-231 cells was determined as 0.86; in the assay on MDA-MB-436 cells, 0.88.
In the case of `CC(=O)O[C@H]1C(=O)[C@@]2(C)[C@H]([C@H](OC(=O)c3ccccc3)[C@]3(O)C[C@H](OC(=O)[C@H](O)[C@@H](NC(=O)c4ccccc4)c4ccccc4)C(C)=C1C3(C)C)[C@]1(OC(C)=O)CO[C@@H]1C[C@@H]2O` [Taxol, reference compound], the “size of cancer tissues, drug with concurrent P18 versus drug alone” value in assay [1] is listed as “more pronounced reduction in the size”. In addition, the IC50 in the assay on MDA-MB-231 cells (Homo sapiens, drug alone, read-out: IC50, MTT-based viability) turned out to be 700 nM; in the assay on MDA-MB-231 cells (Homo sapiens, drug in combination with P18, read-out: IC50, MTT-based viability, with application of P18), 300 nM.
As for “NDLAVVDVR [P13, ACP candidate … from Ncl]”, the MTT-based relative viability with MDA-MB-231 cells turned out to be 0.98; with MDA-MB-436 cells, 0.95.
Take “YEWDVAEAR [P16, ACP candidate … from Eef2]”: the values for the MTT-based relative viability with MDA-MB-231 cells and with MDA-MB-436 cells were 0.93 and 0.96, respectively.
On the same counts, the results for “FEDENFILK [P11, ACP candidate … from Ppia]” are 0.96 and 0.95.
“TDYMVGSYGPR-NH2 [P18-NH2, C-terminal-amidated P18, …-NH2]”: the “tumor-suppressor effect compared with the original P18 (MTT)” value (in assay [2]; with PANC1 PDAC cells; in assay [3]; in the assay on PANC198 PDAC cells; with MDA-MB-231 cells; with MCF7 cells) was “did not improve the tumor-suppressor effect” in each case. Besides, in the assay on MDA-MB-436 cells, the “tumor-suppressor effect compared with the original P18 (MTT)” value is recorded as “did not improve the tumor-suppressor effect”.
As to “IDTIEIITDR [P15, ACP candidate … from Hnrn]”, the results for the MTT-based relative viability in the assay on MDA-MB-231 cells and with MDA-MB-436 cells were 0.93 and 0.95, respectively.
For “LGDLYEEEMR [P17, ACP candidate … from Vim]”, in that order: 1.10 and 0.99.
Regarding “FEELNADLFR [P21, ACP candidate … from Hspa8]”, the results for the MTT-based relative viability with MDA-MB-231 cells and in the assay with MDA-MB-436 cells were 0.89 and 0.92, respectively.
With `N.N.[Cl][Pt][Cl]` [Cisplatin, reference compound], in assay [1], the “size of cancer tissues, drug with concurrent P18 versus drug alone” value is listed as “more pronounced reduction in the size”. The IC50 came to 1200 nM in the assay with MDA-MB-231 cells (drug alone, read-out: IC50, MTT-based viability) and 500 nM with MDA-MB-231 cells (drug in combination with P18, read-out: IC50, MTT-based viability, with application of P18).
With “EEAESTLQSFR [P14, ACP candidate … from Vim]”, the MTT-based relative viability in the assay with MDA-MB-231 cells is 0.88; in the assay on MDA-MB-436 cells it was 0.84.
For “DQVANSAFVER [P19, ACP candidate … from Hsp90aa1]”, in that order: 1.09 and 0.96.
For “VNFTVDQIR [P12, ACP candidate … from Eef2]”, in that order: 0.94 and 0.92.
On the same counts, the results for “QITLNDLPVGR [P20, ACP candidate … from Prdx4]” are 0.87 and 0.86.

B1: Arhgdia: Rho GDP dissociation inhibitor alpha; human recombinant ARHGDIA protein (MyBioSource) (protein, UniProt P52565 2-204, looked up)
Rho GDP-dissociation …: AEQEPTAEQLAQIAAENEEDEHSVNYKPPAQKSIQEIQELDKDDESLRKYKEALLGRVAVSADPNVPNVVVTGLTLVCSSAPGPLELDLTGDLESFKKQSFVLKEGVEYRIKISFRVNREIVSGMKYIQHTYRKGVKIDKTDYMVGSYGPRAEEYEFLTPVEEAPKGMLARGSYSIKSRFTDDDKTDHLSWEWNLTIKKDWKD
As for B1, in the assay on MDA-MB-231 cells (5 μg/mL of recombinant ARHGDIA protein), the MTT-based cell viability result was “significant reduction”.
